Experimental data from US5607926A, “Cephalosporin antibiotics” (Microcide Pharmaceuticals, Inc., priority 1995, dated 1997).
Converted amounts (≈) assume the structure as drawn. Like-named read-outs stand apart in the source and are kept apart here.

How the values were obtained:
Format in all cases: cell-based
[1] = system: S. aureus ATCC 29213; experiment: In vitro antibacterial evaluation, MIC by agar dilution, S. aureus ATCC 29213; settings: Staphylococcus aureus, ATCC29213
Summary of the method: (§1)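 Minimum inhibitory concentrations came from the NCCLS agar dilution method in Mueller-Hinton agar. Each isolate received about 10^4 cfu per spot, and plates were read after 16-20 hours at 35°-36° C.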

[2] = system: S. epidermidis ATCC 31432; experiment: In vitro antibacterial evaluation, MIC by agar dilution, S. epidermidis ATCC 31432; settings: Staphylococcus epidermidis, ATCC31432
Method: The compounds of the invention were evaluated against several β-lactamresistant bacteria strains by determining the minimum inhibitory concentration (MIC, μg/ml) of each compound with respect to each strain. The MIC, the lowest concentration of antibiotic which inhibits growth of the test organism, was determined by the agar dilution method.
To determine the MIC for bacterial isolates, the test compound was incorporated in a series of two-fold dilutions into liquified Mueller-Hinton agar. Upon solidification, a number of different bacterial strains were spot inoculated with a replicating device onto the agar surface. […] The procedures used in these studies have been standardized by the National Committee for Clinical Laboratory Standards (NCCLS), as per the NCCLS publication entitled METHODS FOR DILUTION ANTIMICROBIAL SUSCEPTIBILITY TESTS (1991), which is incorporated herein by reference.
Aliquots of antimicrobial agents were prepared in phosphate buffered saline (PBS) at pH 7.2. Tween 20 or DMSO was used as a solubilizing vehicle as needed. Standard methods of vortexing, sonicating and gentle heat were used to facilitate solubilizing the test agent. Typically, the concentration of the stock solution was 10× that of the highest drug concentration tested. A 1.28 mg/mL stock solution was used with a subsequent highest working concentration of 128 μg/mL. Serial two-fold dilutions were done through ≤0.25 μg/mL. Each drug level was tested in duplicate. Two-fold drug dilutions were done in sterile 50 mL tubes with a final drug volume of 5 mL. Upon the addition of 45 mL of molten agar, a 10-fold dilution resulted. Two, 25 mL. plates were then poured into 15×150 mm square Petri plates with grids and allowed to harden.
A control plate with a reference drug, either cefotaxime, vancomycin or imipenem, was used as the positive growth control. Stock concentrations of reference antibiotics were prepared and frozen at -80° C. Upon preparation, the control plates were sealed and stored in the refrigerator for up to 1 week prior to use; however, imipenem control plates had to be prepared just prior to use. All test plates were used within 24 hours of preparation.
Satisfactory results were obtained where the inoculum contained about 10^4 colony forming units (cfu) ±0.5 logs. Starting with pure cultures of the test isolates on agar plates, a few isolated colonies were transferred to a tube of nutrient broth and allowed to grow 4-6 hours at 35°-36° C. to reach log-phase growth. Dropwise addition of the broth culture to PBS was done to match a 0.5 McFarland turbidity standard equal to 10^8 cfu/mL. This was further diluted ten-fold in PBS to reach a working inoculum concentration of 10^7 cfu/mL. When 1 μL of the working inoculum was applied to the agar surface a concentration of about 10^4 cfu per spot was obtained.
Disposable sterile 1 μL loops were used to inoculate test plates, with each isolate in a designated grid on the agar plate. An alternate method of inoculation involved the use of a replica plater, a device with 48 steel pins allowing the simultaneous inoculation of multiple isolates. After the spots had dried, the plates were incubated at 35°-36° C. for 16-20 hours. Endpoints were assessed as the minimum inhibitory concentration (MIC) of antimicrobial agent.

[3] = system: S. aureus 76 (Meth^R)(lac^+); experiment: In vitro antibacterial evaluation, MIC by agar dilution, S. aureus 76; settings: Staphylococcus aureus, read-out: MIC
Summary of the method: as §1

[4] = system: S. aureus Col8A (Meth^S)(lac^-); experiment: In vitro antibacterial evaluation, MIC by agar dilution, S. aureus Col8A; settings: Staphylococcus aureus
Summary of the method: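 Agar dilution per NCCLS (1991): two-fold dilutions from 128 μg/mL down to ≤0.25 μg/mL in Mueller-Hinton agar, each level in duplicate. Spots of about 10^4 cfu of log-phase culture; 16-20 h at 35°-36° C. MIC in μg/ml is the lowest concentration inhibiting growth.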

[5] = system: S. haemolyticus (Meth^R); experiment: In vitro antibacterial evaluation, MIC by agar dilution, S. haemolyticus; settings: Staphylococcus haemolyticus, read-out: MIC
Summary of the method: as §1

[6] = system: E. faecium ATCC 35667; experiment: In vitro antibacterial evaluation, MIC by agar dilution, E. faecium ATCC 35667; settings: Enterococcus faecium, ATCC35667, read-out: MIC
Summary of the method: as §1

[7] = system: E. coli ATCC 25922; experiment: In vitro antibacterial evaluation, MIC by agar dilution, E. coli ATCC 25922; settings: Escherichia coli, ATCC25922, read-out: MIC
Summary of the method: as §1

[8] = S. epidermidis ATCC 31432, read-out: MIC

Compound | MIC [1] [µg/mL] | MIC [2] [µg/mL] | MIC [3] [µg/mL] | MIC [4] [µg/mL] | MIC [5] [µg/mL] | MIC [6] [µg/mL] | MIC [7] [µg/mL] | MIC ([1]; S. aureus ATCC 29213, read-out: MIC) [µg/mL] | MIC [2, 8] [µg/mL]
O=C(Cc1ccccc1)N[C@@H]1C(=O)N2C(C(=O)O)=C(Sc3cccc4oc5ccccc5c34)CS[C@H]12 [Cmpd 21, (7R)-7-[(Phenylacetyl)amino]-3-(dibenzofuranyl-1-thio)-3-cephem-4-carboxylic acid] | < 0.25 | < 0.25 | 4 (≈ 7.74 µM) | < 0.25 | 32 (≈ 61.9 µM) | 4 (≈ 7.74 µM) | > 32 | – | –
Nc1nc(/C(=N/O)C(=O)N[C@@H]2C(=O)N3C(C(=O)O)=C(Sc4ccccc4I)CS[C@H]23)cs1 [Cmpd 22, (7R)-7-[(Z)-2-(aminothiazol-4-yl)-2-(hydroxyimino)acetamido]-3-(o-iodophenylthio)-3-cephem-4-carboxylic acid] | – | – | 4 (≈ 6.63 µM) | 0.5 (≈ 0.829 µM) | 4 (≈ 6.63 µM) | 2 (≈ 3.31 µM) | 4 (≈ 6.63 µM) | < 0.25 | < 0.25
N#Cc1ccc(-c2ccccc2SC2=C(C(=O)O)N3C(=O)[C@@H](NC(=O)Cc4ccccc4)[C@H]3SC2)cc1 [Cmpd 23, (7R)-7-[(Phenylacetyl)amino]-3-(2-(4-cyanophenyl)phenylthio)-3-cephem-4-carboxylic acid] | < 0.25 | < 0.25 | 8 (≈ 15.2 µM) | < 0.25 | 16 (≈ 30.3 µM) | 2 (≈ 3.79 µM) | > 32 | – | –
O=C(Cc1ccccc1)N[C@@H]1C(=O)N2C(C(=O)O)=C(Sc3cccc(Cl)c3Cl)CS[C@H]12 [Cmpd 24, (7R)-7-[(Phenylacetyl)amino]-3-(2,3-dichlorophenylthio)-3-cephem-4-carboxylic acid] | < 0.25 | < 0.25 | 4 (≈ 8.07 µM) | < 0.25 | 8 (≈ 16.1 µM) | 2 (≈ 4.04 µM) | > 32 | – | –
O=C(Cc1cccs1)N[C@@H]1C(=O)N2C(C(=O)O)=C(Sc3ccccc3I)CS[C@H]12 [Cmpd 25, (7R)-7-[(2-Thienylacetyl)amino]-3-(o-iodophenylthio)-3-cephem-4-carboxylic acid] | 0.125 (≈ 0.224 µM) | – | 4 (≈ 7.16 µM) | 0.125 (≈ 0.224 µM) | 16 (≈ 28.7 µM) | 2 (≈ 3.58 µM) | > 32 | – | < 0.06
O=C(Cc1cccs1)N[C@@H]1C(=O)N2C(C(=O)O)=C(Sc3cc(Cl)ccc3Cl)CS[C@H]12 [Cmpd 26, (7R)-7-[(2-Thienylacetyl)amino]-3-(2,5-dichlorophenylthio)-3-cephem-4-carboxylic acid] | < 0.25 | < 0.25 | 4 (≈ 7.98 µM) | < 0.25 | 8 (≈ 16 µM) | 2 (≈ 3.99 µM) | > 32 | – | –
O=C(Cc1ccccc1)N[C@@H]1C(=O)N2C(C(=O)O)=C(Sc3ccccc3-c3ccco3)CS[C@H]12 [Cmpd 27, (7R)-7-[(Phenylacetyl)amino]-3-(2-(2-furyl)phenylthio)-3-cephem-4-carboxylic acid] | < 0.25 | < 0.25 | 4 (≈ 8.12 µM) | < 0.25 | 16 (≈ 32.5 µM) | 1 (≈ 2.03 µM) | > 32 | – | –
O=C(Cc1ccccc1)N[C@@H]1C(=O)N2C(C(=O)O)=C(Sc3ccc(Cl)cc3Cl)CS[C@H]12 [Cmpd 28, (7R)-7-[(Phenylacetyl)amino]-3-(2,4-dichlorophenylthio)-3-cephem-4-carboxylic acid] | < 0.25 | < 0.25 | 4 (≈ 8.07 µM) | < 0.25 | 8 (≈ 16.1 µM) | 2 (≈ 4.04 µM) | > 32 | – | –
COc1ccc(CC(=O)N[C@@H]2C(=O)N3C(C(=O)O)=C(Sc4ccccc4I)CS[C@H]23)cc1 [Cmpd 29, (7R)-7-[(p-Methoxyphenylacetyl)amino]-3-(o-iodophenylthio)-3-cephem-4-carboxylic acid] | < 0.25 | < 0.25 | 4 (≈ 6.87 µM) | < 0.25 | 16 (≈ 27.5 µM) | 1 (≈ 1.72 µM) | > 32 | – | –
